Structures can show the parent of a compound that is named as a salt. Where two headings read alike, the source gives them in different places.
Experiments:
NCI-H1417 cells = test: In vitro cell proliferation detection (CellTiter-Glo, 7 days); assay type: cell-based
LSD1 = LSD1 (Homo sapiens (Human), UniProt O60341); test: LSD1 enzyme activity detection (HTRF); assay type: biochemical
[1] = Homo sapiens, 168 h, NCI-H1417 cells, 7 days, CellTiter-Glo, read-out: NCI-H1417 proliferation inhibition IC50
[2] = HTRF, H3K4me1 substrate, read-out: Inhibition of enzymatic activity of LSD1 IC50
[3] = read-out: Inhibition of enzymatic activity of LSD1 IC50

## N#Cc1ccc(-c2nc(N3C4CCC3CC(N)C4)n3ccnc3c2-c2cc3nc[nH]c3cc2F)cc1F (stereo not shown) [Example 172, 4-(5-(3-amino-8-azabicyclo[3.2.1]octane-8-yl)-8-(6-fluoro-1H-benzo[d]imidazole-5-yl)imidazolo [1,2-c]pyrimidin-7-yl)-2-fluorobenzonitrile]
NCI-H1417 cells; [1]
  IC50: 149 nM
LSD1; [2]
  IC50: 5 ± 4.1 nM

## CS(=O)(=O)N1CCN(C(=O)c2cc(CCN[C@@H]3C[C@H]3c3ccc(F)cc3)nc(-c3ccc(-n4cccn4)cc3)c2)CC1 [Example 255, (2-(4-(1H-pyrazol-1-yl)phenyl)-6-(2-(((1R,2S)-2-(4-fluorophenyl)cyclopropyl)amino)ethyl)pyridin-4-yl) (4-(methylsulfonyl)piperazin-1-yl)methanone]
NCI-H1417 cells; [1]
  IC50: 29.1 nM
LSD1; [2]
  IC50: 172 nM

## N#Cc1ccc(-c2nc(N3C4CCC3CC(N)C4)n3ccnc3c2-c2cc3nonc3cc2F)cc1F (stereo not shown) [Example 186, 4-(5-(3-amino-8-azabicyclo[3.2.1]octane-8-yl)-8-(6-fluorobenzo[c] [1,2,5]oxadiazole-5-yl)imidazolo [1,2-c]pyrimidin-7-yl)-2-fluorobenzonitrile]
NCI-H1417 cells; [1]
  IC50: 18 nM
LSD1; [2]
  IC50: 17.3 nM

## CS(=O)(=O)N1CCN(C(=O)c2cc(CN[C@@H]3C[C@H]3c3ccc(F)cc3)nc(-c3ccn4ccnc4c3)n2)CC1 [Example 232]
NCI-H1417 cells; [1]
  IC50: 209 nM
LSD1; [2]
  IC50: 548 nM

## O=C(c1cc(CN[C@@H]2C[C@H]2c2ccc(F)cc2)nc(-c2cccnc2)n1)N1CCOCC1 [Example 240]
NCI-H1417 cells; [1]
  IC50: 29.5 nM
LSD1; [2]
  IC50: 770 nM

## Cc1nc(N2CCC(N)CC2)c(C#N)c(-c2ccc(C#N)c(F)c2)c1-c1cc2onc(C)c2cc1F [Example 277, 2-(4-aminopiperidin-1-yl)-4-(4-cyano-3-fluorophenyl)-5-(5-fluoro-3-methylbenzo[d]isoxazol-6-yl)-6-methylnicotinonitrile]
NCI-H1417 cells; [1]
  IC50: 1.33 nM
LSD1; [2]
  IC50: 0.39 nM

## COc1ccc(-c2c(OC)cc(N3CCNCC3)nc2-c2ccc(C#N)c(F)c2)cc1O [Example 96, 2-fluoro-4-(3-(3-hydroxy-4-methoxyphenyl)-4-methoxy-6-(piperazinyl)pyridin-2-yl)benzonitrile hydrochloride]
NCI-H1417 cells; [1]
  IC50: 11.8 nM
LSD1; [2]
  IC50: 3 ± 0.6 nM

## O=C(NC1CCOCC1)c1cc(CN[C@@H]2C[C@H]2c2ccc(F)cc2)nc(-c2ccc(-n3ccnn3)cc2)n1 [Example 249]
NCI-H1417 cells; [1]
  IC50: 1.11 nM
LSD1; [2]
  IC50: 15.8 nM

## Cc1ccc(-c2c(-c3ccc(C#N)cc3)cc3c(N4CCC(N)CC4)nncn23)cc1 [Example 196, 4-(1-(4-aminopiperidin-1-yl)-6-(p-tolyl)pyrrolo[1,2-d][1,2,4]triazin-7-yl)benzonitrile hydrochloride]
NCI-H1417 cells; [1]
  IC50: 656 nM
LSD1; [3]
  IC50: 37.7 nM

## Cc1ccc(-c2c(-c3ccc(C#N)cc3)cc3c(N4CCC[C@@H](N)C4)cccn23)cc1 [Example 10, (R)-4-(8-(3-aminopiperidin-1-yl)-3-(p-tolyl)indolizin-2-yl)benzonitrile hydrochloride]
NCI-H1417 cells; Homo sapiens, NCI-H1417, 168 h, read-out: NCI-H1417 proliferation inhibition IC50(nM)
  IC50: 371 nM
LSD1; [3]
  IC50: 79.1 ± 18.9 nM

## CS(=O)(=O)N1CCN(C(=O)c2cc(CN[C@@H]3C[C@H]3c3ccc(F)cc3)nc(-c3ccccc3)n2)CC1 [Example 1]
NCI-H1417 cells; NCI-H1417 cells, 7 days, CellTiter-Glo, read-out: NCI-H1417 proliferation inhibition IC50
  IC50: 11.3 nM
LSD1; [2]
  IC50: 186 ± 69.6 nM

## COc1ccc(-c2cnc(N3CCC(N)CC3)c(C#N)c2-c2ccc(C#N)c(F)c2)cc1 [Example 69, 2-(4-aminopiperidin-1-yl)-4-(4-cyano-3-fluorophenyl)-5-(4-methoxyphenyl) nicotinonitrile hydrochloride]
NCI-H1417 cells; [1]
  IC50: 8.41 nM
LSD1; [2]
  IC50: 3.9 ± 2.7 nM

## CNC1CCN(c2cc(O)c(-c3ccc(OC)c(F)c3)c(-c3ccc(C#N)c(F)c3)n2)CC1 [Example 55, 2-fluoro-4-(3-(3-fluoro-4-methoxyphenyl)-4-hydroxy-6-(4-(methylamino)piperidin-1-yl)pyridin-2-yl)benzonitrile]
NCI-H1417 cells; [1]
  IC50: 10 ± 2.9 nM
LSD1; [2]
  IC50: 2.3 ± 0.7 nM

## COc1ccc(-c2c(OC)cc(N3CCC(N)CC3)cc2-c2ccc(C#N)c(F)c2)cc1O [Example 267, 5′-(4-aminopiperidin-1-yl)-3-fluoro-3″-hydroxy-3′,4″-dimethoxy-[1,1′:2′,1″-terphenyl]-4-nitrile trifluoroacetate]
NCI-H1417 cells; [1]
  IC50: 3.87 nM
LSD1; [2]
  IC50: 1 ± 0.4 nM

## O=C(c1cc(CN[C@@H]2C[C@H]2c2ccc(F)cc2)nc(-c2ccc(-n3ccnn3)cc2)n1)N1CCOCC1 [Example 242]
NCI-H1417 cells; [1]
  IC50: 2.83 nM
LSD1; [2]
  IC50: 49.6 nM

## N#Cc1ccc(-c2nc(N3CCC(N)CC3)n3ccnc3c2-c2ccc3[nH]nc(Cl)c3c2)cc1F [Example 123, 4-(5-(4-aminopiperidin-1-yl)-8-(3-chloro-1H-indazolo-5-yl)imidazolo[1,2-c]pyrimidin-7-yl)-2-fluorobenzonitrile]
NCI-H1417 cells; [1]
  IC50: 47.6 nM
LSD1; [2]
  IC50: 28.7 nM

## N#Cc1ccc(-c2cc(C(=O)N3C4CCC3CC(N)C4)sc2-c2ccc3cc[nH]c3c2)cc1F (stereo not shown) [Example 200, 4-(5-(3-amino-8-azabicyclo [3.2.1]octane-8-carbonyl)-2-(1-hydro-indol-6-yl)thiophen-3-yl)-2-fluorobenzonitrile]
NCI-H1417 cells; [1]
  IC50: 34 nM
LSD1; [2]
  IC50: 0.69 nM

## Cc1ccc(-c2sc(CN3C4CCC3CC(N)C4)cc2-c2ccc(C#N)c(F)c2)c(F)c1 (stereo not shown) [Example 7, 4-(5-((3-amino-8-azabicyclo[3.2.1]octane-8-yl)methyl)-2-(2-fluoro-4-methylphenyl)thiophen-3-yl)-2-fluorobenzonitrile trifluoroacetate]
NCI-H1417 cells; [1]
  IC50: 46.4 nM
LSD1
  IC50: 0.4 ± 0.29 nM

## COc1ccc(-c2c(O)cc(N3CCC(N)CC3)nc2-c2ccc(C#N)c(F)c2)cc1C#N [Example 47, 4-(6-(4-aminopiperidin-1-yl)-3-(3-cyano-4-methoxyphenyl)-4-hydroxypyridin-2-yl)-2-fluorobenzonitrile]
NCI-H1417 cells; [1]
  IC50: 106 nM
LSD1; [2]
  IC50: 2.6 ± 1.3 nM

## Cc1noc2cc(-c3c(-c4ccc(C#N)c(F)c4)nc(N4CCC(N)CC4)c4nc[nH]c34)c(F)cc12 [Example 272, 4-(4-(4-aminopiperidin-1-yl)-7-(5-fluoro-3-methylbenzo[d]isoxazol-6-yl)-1H-imidazolo[4,5-c]pyridin-6-yl)-2-fluorobenzonitrile]
NCI-H1417 cells; [1]
  IC50: 11 nM
LSD1; [2]
  IC50: 1.8 ± 0.8 nM

## COc1ccc(-c2c(-c3ccc(C#N)c(F)c3)nc(N3CCC(N)CC3)c3nc[nH]c23)cc1O [Example 271, 4-(4-(4-aminopiperidin-1-yl)-7-(3-hydroxy-4-methoxyphenyl)-1H-imidazolo[4,5-c]pyridin-6-yl)-2-fluorobenzonitrile hydrochloride]
NCI-H1417 cells; [1]
  IC50: 9.77 nM
LSD1; [2]
  IC50: 0.5 ± 0.4 nM

## COc1ccc(C#Cc2c(-c3ccc(C#N)c(F)c3)nc(N3CCC(N)CC3)n3ccnc23)cc1F [Example 122, 4-(5-(4-aminopiperidin-1-yl)-8-(3-fluoro-4-methoxyphenyl)ethynyl)imidazolo [1,2-c]pyrimidin-7-yl)-2-fluorobenzonitrile hydrochloride]
NCI-H1417 cells; [1]
  IC50: 30.2 nM
LSD1; [2]
  IC50: 8.68 ± 0.76 nM

## COc1ccc(-c2c(-c3ccc(C#N)c(F)c3)nc(N3CCC(N)CC3)n3c(C)cnc23)cc1O [Example 187, 4-(5-(4-aminopiperidin-1-yl)-8-(3-hydroxy-4-methoxyphenyl)-3-methylimidazolo[1,2-c]pyrimidin-7-yl)-2-fluorobenzonitrile]
NCI-H1417 cells; [1]
  IC50: 1.11 nM
LSD1; [2]
  IC50: 0.8 ± 0.1 nM

## Cc1ccc(-c2c(-c3ccc(C#N)c(F)c3)nc(N3C4CCC3CC(N)C4)n3ccnc23)cc1O (stereo not shown) [Example 156, 4-(5-(3-amino-8-azabicyclo[3.2.1]octane-8-yl)-8-(3-hydroxy-4-methylphenyl)imidazolo[1,2-c]pyrimidin-7-yl)-2-fluorobenzo nitrile hydrochloride]
NCI-H1417 cells; [1]
  IC50: 0.447 nM
LSD1; [2]
  IC50: 0.2 ± 0.06 nM

## Cc1noc2c(-c3sc(C(=O)N4C5CCC4CC(N)C5)cc3-c3ccc(C#N)c(F)c3)c(F)ccc12 (stereo not shown) [Example 209, 4-(5-(3-amino-8-azabicyclo [3.2.1]octan-8-carbonyl)-2-(6-fluoro-3-methylbenzo[d]isoxazol-7-yl)thiophen-3-yl)-2-fluoro-benzonitrile hydrochloride]
NCI-H1417 cells; [1]
  IC50: 1.44 nM
LSD1; [2]
  IC50: 0.507 nM

## COc1ccc(-c2c(O)cc(N3CCC[C@@H](N)C3)nc2-c2ccc(C#N)c(F)c2)cc1F [Example 31, (R)-4-(6-(3-aminopiperidin-1-yl)-3-(3-fluoro-4-methoxyphenyl)-4-hydroxypyridin-2-yl)-2-fluorobenzonitrile hydrochloride]
NCI-H1417 cells; [1]
  IC50: 77.2 nM
LSD1; [2]
  IC50: 51 nM

## O=C(c1cc(CN[C@@H]2C[C@H]2c2ccc(F)cc2)nc(-c2ccc(N3CCOCC3)cc2)n1)N1CCC(F)(F)CC1 [Example 244, (4,4-difluoropiperidin-1-yl)(6-(((1R,2S)-2-(4-f1uorophenyl)cyclopropyl)amino)methyl)-2-(4-morpholinophenyl) pyrimidin-4-yl)methanone hydrochloride]
NCI-H1417 cells; [1]
  IC50: 5.07 nM
LSD1; [2]
  IC50: 116 nM

## COc1ccc(C#Cc2c(O)cc(N3CCC(N)CC3)nc2-c2ccc(C#N)c(F)c2)cc1F [Example 27]
NCI-H1417 cells; [1]
  IC50: 446 nM
LSD1; [2]
  IC50: 77.5 nM

## O=C(c1cc(CN[C@@H]2C[C@H]2c2ccc(F)cc2)nc(-c2ccc(N3CCOCC3)cc2)n1)N1CCOCC1 [Example 245, (6-((1R,2S)-2-(4-fluorophenyl)cyclopropyl)amino)methyl)-2-(4-morpholinophenyl) pyrimidin-4-yl) (morpholino)methanone hydrochloride]
NCI-H1417 cells; [1]
  IC50: 1.98 nM
LSD1; [2]
  IC50: 39.1 nM

## O=C(c1cc(CN[C@@H]2C[C@H]2c2ccc(F)cc2)nc(-c2ccc(-n3cccn3)cc2)n1)N1CCOCC1 [Example 229]
NCI-H1417 cells; [1]
  IC50: 2.05 nM
LSD1; [2]
  IC50: 13 nM

## N#Cc1ccc(-c2nc(N3CCC(N)CC3)n3ccnc3c2-c2ccc(C(F)(F)F)c(O)c2)cc1F [Example 154, 4-(5-(4-aminopiperidin-1-yl)-8-(3-hydroxy-4-(trifluoromethyl)phenyl)imidazolo [1,2-c]pyrimidin-7-yl)-2-fluorobenzonitrile carboxylate]
NCI-H1417 cells; [1]
  IC50: 0.959 nM
LSD1; [2]
  IC50: 0.5 ± 0.1 nM

## Cc1noc2cc(-c3c(-c4ccc(C#N)c(F)c4)nc(N(C)CCCN)n4ccnc34)c(F)cc12 [Example 150]
NCI-H1417 cells; [1]
  IC50: 31.2 nM
LSD1; [2]
  IC50: 20.3 nM

Reference: US20240216357A1 (SICHUAN HUIYU PHARMACEUTICAL CO., LTD., priority 2021, published 2024)
